{"source": "patent US5462861A", "about": "“Method for improving enzyme activities with noble gases” (American Air Liquide, Chicago Research Center, priority 1993, dated 1995)", "key": {"[1]": {"system": "phenylalanine ammonia lyase", "experiment": "Phenylalanine ammonia lyase activity under gas", "type": "biochemical", "conditions": "head not printed", "procedure": "(§1) Solution preparation: Optimized w/v solutions are prepared by diluting the enzyme (units/ml) and the substrate (μg/ml) in appropriate buffer (optimized pH and molarity for enzymes). The solutions are used for gas experiments at once to avoid loss of activity. Various enzyme and substrate concentrations and inhibitors may be employed. Physical parameters are varied as required.\n(§2) Preparation of samples: Cuvets are filled with 2 ml of substrate solution by means of a gas-tight syringe. Gas-tight serum vials are filled with enzyme and solvent. Sufficient gas is consecutively bubbled in the cuvets and serum vials, with a 1-hr wait between injections to maximize equilibration of gas. All syringes and dead spaces are purged before filling with the appropriate gas. The amount of gas used has been measured sufficient to saturate the solution required.\n(§3) Spectrophotometric time-drive, reaction rate, and kinetic analyses: cuvets and serum vials are saturated with gas 40 minutes before the run. A gas-filled syringe is used to retrieve 0.5 ml of enzyme solution to avoid air contact. The 0.5 ml syringe injections of enzyme are made simultaneously to effect a common starting time to for the samples. 7 gases (air, O2, N2, Ne, Ar, Kr, Xe) are run at various temperatures each (from 0° to 60° ). Changes in the rate or final equilibrium of the reaction versus ambient air are recorded. Comparison is also made with added oxygen, and with deoxygenation. Some samples are also prepared under pressure.\n(§4) In a complete experiment, an enzyme at optimal pH and buffering salt concentration is reacted with 5 substrate concentrations in solution with noble gas at 1 atm. […] Controls are also run after evacuation of solution by vacuum. The reaction is monitored colorimetrically in a scanning spectrophotometer in real time, and the signals are treated mathematically to obtain rate and yield differences. Sample numbers are constant and sufficient to ensure significance of results. All parameters are independently controlled and measured, and more complex experiments are occasionally carried out."}, "Tyrosinase": {"system": "Tyrosinase", "experiment": "Tyrosinase-L-tyrosine reaction, solution saturated with gas", "type": "biochemical, Mushroom", "conditions": "for temperature dependence of the effect on tyrosinase: various temperatures (15-35° C.); for effect on rate and final equilibrium of the tyrosinase-L-tyrosine reaction: various temperatures", "procedure": "as §1, §2, §3\n1. Solution preparation: 10% w/v solutions are prepared by diluting the enzyme (units/ml) and the substrate (μg/ml) in Sodium Phosphate buffer (pH 6.85, optimized pH for enzymes). The solutions are stored in refrigerator (0°-5° C.) and used for gas experiments within 2 or 3 days to avoid loss of activity.\n6. Preparation of run samples: Acrylic cuvets are filled with 2 ml of substrate solution by means of a gas tight syringe. Gastight serum vials are filled with enzyme. 3×10 cc of gas are consecutively bubbled in the cuvets and serum vials, with a […] between injections. This represents a 10× displacement of dead volume while maximizing equilibration of gas. All syringes and dead spaces are purged before filling with the appropriate gas. After the third 10 cc injection, the cuvets and serum vials are left overnight under two 10 cc syringes filled with the appropriate gas in refrigerator at 0°-5° C.\n8. Spectrophotometric runs: The cuvets and serum vials are filled with 10 cc of gas 40 min before the run. A gas-filled syringe is used to retrieve 0.5 ml of enzyme solution to avoid air contact. The 0.5 ml syringe injections of enzyme are made simultaneously to effect a common starting time t0 for the samples. Seven gases (air, O2, N2, Ne, Ar, Kr, Xe) are run at five temperatures each (15° C., 20° C., 25° C., 30° C., 35° C.). Changes in the rate or final equilibrium of the reaction versus ambient air are recorded.\nThe optimal conditions are [E]/[S] (100 μg/ml)/(100 μg/ml), the changes in absorbance being observed at 305 nm.\n3×10 cc of gas are bubbled in the silicone-sealed cuvets and serum vials (T-3754, T-7755), with an interval of 20 min (at 0°-5°C.) between each gas injection.\na. The silicone-sealed cuvets are removed from the refrigerator 40 min before the experimental run, filled with 10 cc of gas and left at room temperature (26° C.) under two 10 cc syringes.\nThe 0.5 ml syringe injections of enzyme are made simultaneously to effect a common starting time t0 for the samples.\n200 points, 18 s intervals 1 hr run"}, "Acetyl S-CoA synthetase": {"system": "Acetyl S-CoA synthetase", "experiment": "Acetyl S-CoA synthetase activity under gas (coupled sequence or isolated reaction)", "type": "biochemical", "conditions": "depending upon temperature", "procedure": "as §1, §2, §3\nMaximum observed enhancement vs maximum observed inhibition (depending upon temperature):\nIn a coupled complex reaction sequence including hydrolytic enzymes: […]"}, "citrate synthetase": {"target": "T1, citrate synthetase (Homo sapiens, UniProt O75390)", "T1 sequence (O75390 28-466)": "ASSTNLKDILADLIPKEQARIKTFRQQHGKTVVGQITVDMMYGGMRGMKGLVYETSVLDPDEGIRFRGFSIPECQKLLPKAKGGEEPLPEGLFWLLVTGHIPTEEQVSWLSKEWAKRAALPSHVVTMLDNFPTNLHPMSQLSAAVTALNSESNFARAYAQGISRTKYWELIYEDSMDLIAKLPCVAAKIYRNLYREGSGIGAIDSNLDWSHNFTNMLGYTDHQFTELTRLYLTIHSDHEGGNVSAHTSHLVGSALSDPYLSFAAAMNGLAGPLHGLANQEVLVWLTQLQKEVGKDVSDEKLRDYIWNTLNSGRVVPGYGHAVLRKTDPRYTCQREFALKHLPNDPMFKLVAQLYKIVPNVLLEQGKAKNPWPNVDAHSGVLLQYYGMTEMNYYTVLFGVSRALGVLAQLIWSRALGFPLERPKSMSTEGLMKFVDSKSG", "experiment": "Citrate synthetase complex reaction under gas", "type": "biochemical", "procedure": "as §1, §2, §3, §4"}, "Glucose oxidase": {"target": "Glucose oxidase (Aspergillus niger, UniProt P13006)", "sequence (P13006 17-605)": "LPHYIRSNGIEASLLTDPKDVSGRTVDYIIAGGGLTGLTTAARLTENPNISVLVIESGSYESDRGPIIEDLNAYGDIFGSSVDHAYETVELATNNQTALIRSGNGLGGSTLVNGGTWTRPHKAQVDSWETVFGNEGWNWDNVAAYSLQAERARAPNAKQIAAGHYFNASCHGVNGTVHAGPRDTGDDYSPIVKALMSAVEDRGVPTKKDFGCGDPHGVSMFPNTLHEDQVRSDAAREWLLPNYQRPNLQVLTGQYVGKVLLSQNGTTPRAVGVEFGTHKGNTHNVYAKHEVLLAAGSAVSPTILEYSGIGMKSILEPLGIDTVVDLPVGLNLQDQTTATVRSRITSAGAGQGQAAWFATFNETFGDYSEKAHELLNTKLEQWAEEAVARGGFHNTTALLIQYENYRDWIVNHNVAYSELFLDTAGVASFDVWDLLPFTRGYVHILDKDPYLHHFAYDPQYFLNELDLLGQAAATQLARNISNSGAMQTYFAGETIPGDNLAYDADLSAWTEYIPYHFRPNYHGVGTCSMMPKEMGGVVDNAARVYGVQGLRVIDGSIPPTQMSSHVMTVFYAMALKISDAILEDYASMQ", "experiment": "Glucose oxidase activity under gas", "type": "biochemical", "procedure": "as §1, §2, §3"}, "[2]": {"conditions": "coupled complex reaction sequence including hydrolytic enzymes"}}, "note": "Entries after “also recorded” stand apart in the source; their conditions may differ."}
{"smiles": "[Xe]", "note": "[Xe, xenon]", "values": [{"measurement": "effect on phenylalanine ammonia lyase", "setting": "[1]; optimized enzyme concentration, first value column", "value": "+18"}, {"measurement": "effect on phenylalanine ammonia lyase", "setting": "[1]; optimized enzyme concentration, second value column", "value": "+3"}, {"measurement": "effect on phenylalanine ammonia lyase", "setting": "[1]; optimized enzyme concentration, third value column", "value": "+5"}, {"measurement": "effect on phenylalanine ammonia lyase", "setting": "[1]; suboptimal enzyme concen., first value column", "value": "+14"}, {"measurement": "effect on phenylalanine ammonia lyase", "setting": "[1]; suboptimal enzyme concen., second value column", "value": "+8"}, {"measurement": "effect on phenylalanine ammonia lyase", "setting": "[1]; suboptimal enzyme concen., third value column", "value": "+11"}, {"measurement": "effect on tyrosinase-L-tyrosine reaction", "setting": "Tyrosinase; 15° C.", "value": "small, but significant inhibitory effect; also recorded: small but significant inhibitory effect"}, {"measurement": "effect on tyrosinase-L-tyrosine reaction", "setting": "Tyrosinase; 20° C.", "value": "inhibits the tyrosinase-L-tyrosine reaction quite strongly; also recorded: dramatically inhibit; also recorded: inhibiting effects"}, {"measurement": "effect on tyrosinase-L-tyrosine reaction", "setting": "Tyrosinase; 25° C.", "value": "inhibitory effect"}, {"measurement": "effect", "setting": "Tyrosinase; 25° C., optimal reaction conditions, simple saturation of solution with gas, minus = inhibition", "value": -73, "unit": "%"}, {"measurement": "effect on tyrosinase", "setting": "Tyrosinase; 26° C.", "value": "very large inhibition; also recorded: optimal inhibition curve"}, {"measurement": "area of run curve", "setting": "Tyrosinase; 26° C., FIG. 6", "value": "~3037", "unit": "μ"}, {"measurement": "inhibition of air rate", "setting": "Tyrosinase; 26° C., FIG. 6, estimated from curve areas", "value": "~72.92", "unit": "%"}, {"measurement": "total area as % of air area", "setting": "Tyrosinase; 26° C., FIG. 6, 60 min", "value": "~27.08", "unit": "%"}, {"measurement": "% total area", "setting": "Tyrosinase; 26° C., FIG. 6, total = air + xenon areas", "value": "~21.31"}, {"measurement": "effect on tyrosinase-L-tyrosine reaction", "setting": "Tyrosinase; 30° C., listed as Xenon", "value": "inhibits the reaction much better than other gases"}, {"measurement": "effect on tyrosinase-L-tyrosine reaction", "setting": "Tyrosinase; 30° C., listed as xenon", "value": "inhibitory effect"}, {"measurement": "effect on tyrosinase", "setting": "Tyrosinase; equal w/w, FIG. 5", "value": "inhibition"}, {"measurement": "temperature dependence of the effect on tyrosinase", "setting": "Tyrosinase; listed as Xenon", "value": "interacts inversely with temperature"}, {"measurement": "temperature dependence of the effect on tyrosinase", "setting": "Tyrosinase; listed as xenon", "value": "at least two activity transitions; also recorded: large difference in xenon activity between 20 °C and 25 °C; also recorded: interacts inversely with temperature; also recorded: large difference in xenon activity between 20° and 25 °C"}, {"measurement": "effect on rate and final equilibrium of the tyrosinase-L-tyrosine reaction", "setting": "Tyrosinase; listed as Xenon", "value": "significantly inhibits the rate and depresses the final equilibrium"}, {"measurement": "effect on rate and final equilibrium of the tyrosinase-L-tyrosine reaction", "setting": "Tyrosinase; listed as xenon", "value": "inhibits the equilibrium of the tyrosinase-L-tyrosine reaction better than other gases; also recorded: inhibition"}, {"measurement": "Maximum observed enhancement", "setting": "Acetyl S-CoA synthetase; [2]", "value": "+18.3%"}, {"measurement": "maximum observed inhibition", "setting": "Acetyl S-CoA synthetase; [2]", "value": -25.0, "unit": "%"}, {"measurement": "Maximum observed enhancement", "setting": "Acetyl S-CoA synthetase; isolated reaction", "value": "+15.4%"}, {"measurement": "maximum observed inhibition", "setting": "Acetyl S-CoA synthetase; isolated reaction", "value": -39.5, "unit": "%"}, {"measurement": "effect on citrate synthetase complex reaction", "setting": "citrate synthetase; 10° C.", "value": "+18"}, {"measurement": "effect on citrate synthetase complex reaction", "setting": "citrate synthetase; 25° C.", "value": 0}, {"measurement": "effect on citrate synthetase complex reaction", "setting": "citrate synthetase; 35° C.", "value": "+32"}, {"measurement": "effect on citrate synthase", "setting": "citrate synthetase; FIG. 33", "value": "enhancement"}, {"measurement": "effect on glucose oxidase", "setting": "Glucose oxidase; FIG. 28", "value": "inhibition"}, {"measurement": "effect", "setting": "Glucose oxidase; minus = inhibition, dependent upon temperature and substrate concentration", "value": -91.6, "unit": "%"}]}
